Experimental data published in ChEMBL document CHEMBL5727031, “Metabotropic glutamate receptor negative allosteric modulators (NAMS) and uses thereof” (2018).

Legend:
[1] = (§1) In Vitro GIRK Thallium Flux Assay (2.5 minutes): Human Embryonic Kidney (HEK-293) cell lines co-expressing rat mGlu receptors 2, 3, 4, 6, 7 or 8 and G protein-coupled inwardly-rectifying potassium (GIRK) channels_ENREF_54 were grown in Growth Media containing 45% DMEM, 45% F-12, 10% FBS, 20 mM HEPES, 2 mM L-glutamine, antibiotic/antimycotic, non-essential amino acids, 700 μg/ml G418, and 0.6 μg/ml puromycin at 37° C. in the presence of 5% CO2. All cell culture reagents were purchased from Invitrogen Corp. (Carlsbad, Calif.) unless otherwise noted. Compound activity at the group II (mGlu2 and mGlu3) mGlus was assessed using thallium flux through GIRK channels. Briefly, cells were plated into 384-well, black-walled, clear-bottomed poly-D-lysine-coated plates at a density of 15,000 cells/20 μL/well in DMEM containing 10% dialyzed FBS, 20 mM HEPES, and 100 units/mL penicillin/streptomycin (assay media). Plated cells were incubated overnight at 37° C. in the presence of 5% CO2. The following day, the medium was exchanged from the cells to assay buffer [Hanks' balanced salt solution (Invitrogen) containing 20 mM HEPES, pH 7.3] using an ELX405 microplate washer (BioTek), leaving 20 μL/well, followed by the addition of 20 μL/well FluoZin2-AM (330 nM final concentration) indicator dye (Invitrogen; prepared as a stock in DMSO and mixed in a 1:1 ratio with Pluronic acid F-127) in assay buffer. Cells were incubated for 1 h at room temperature, and the dye exchanged to assay buffer using an ELX405, leaving 20 μL/well. Test compounds were diluted to 2 times their final desired concentration in assay buffer (0.3% DMSO final concentration). Agonists were diluted in thallium buffer [125 mM sodium bicarbonate (added fresh the morning of the experiment), 1 mM magnesium sulfate, 1.8 mM calcium sulfate, 5 mM glucose, 12 mM thallium sulfate, and 10 mM HEPES, pH 7.3] at 5 times the final concentration to be assayed. Cell plates and compound plates were loaded onto a kinetic imaging plate reader (FDSS 6000 or 7000; Hamamatsu Corporation, Bridgewater, N.J.). Appropriate baseline readings were taken (10 images at 1 Hz; excitation, 470±20 nm; emission, 540±30 nm) and test compounds were added in a 20 μL volume and incubated for either 2.5 min or 60 min as indicated before the addition of 10 μL of thallium buffer with or without agonist. After the addition of agonist, data were collected for approximately an additional 2.5 min. Data were analyzed using Excel (Microsoft Corp, Redmond, Wash.). The slope of the fluorescence increase beginning 5 s after thallium/agonist addition and ending 15 s after thallium/agonist addition was calculated, corrected to vehicle and maximal agonist control slope values, and plotted in using either XLfit (ID Business Solutions Ltd) or Prism software (GraphPad Software, San Diego, Calif.) to generate concentration-response curves. Potencies were calculated from fits using a four-point parameter logistic equation. For concentration-response curve experiments, compounds were serially diluted 1:3 into 10 point concentration response curves and were transferred to daughter plates using an Echo acoustic plate reformatter (Labcyte, Sunnyvale, Calif.). Test compounds were applied and followed by EC80 concentrations of glutamate.
[2] = as §1; remark: listed apart in the source
[3] = as §1, with “Assay (60” for “Assay (2.5”, “additional 60” for “additional 2.5”
[4] = as above; remark: listed apart in the source

Row | SMILES | EC50 ([1]; HEK293, 2.5 min) | EC50 ([2]; HEK293, 2.5 min) | EC50 ([3]; HEK293, 1 h) | EC50 ([4]; HEK293, 1 h) | EC50 [1] | EC50 [2] | EC50 [3] | EC50 [4]
1 | Fc1ccc(-c2cccc(-c3csc(-c4ccccc4)c3)c2)cc1 | > 10 µM | > 10 µM | > 10 µM | > 10 µM |  |  |  | 
2 | c1ccc(-c2cccc(-c3csc(-c4cccc5ccccc45)n3)c2)cc1 | > 10 µM | > 30 µM | > 10 µM | > 30 µM |  |  |  | 
3 | Clc1ccc(-c2cccc(-c3csc(-c4ccccc4)n3)c2)cc1 | 0.57 µM | 0.79 µM | 0.8 µM | 1.33 µM |  |  |  | 
4 | O=C(O)c1cc(F)cc(-c2cccc(-c3nc(-c4ccoc4)cc(C(F)(F)F)n3)c2)c1 |  |  |  |  | 0.35 µM | 2.21 µM | 0.31 µM | 1.56 µM
5 | COc1ccc(-c2nc(-c3cccc(-c4ccccc4)c3)cs2)cc1OC | 2.58 µM | 4.02 µM | 1.1 µM | > 10 µM |  |  |  | 
6 | Cc1cc(NC(=O)OC(C)(C)C)c(NC(=O)CC(=O)c2cccc(OCc3ccccc3)c2)cc1C(F)(F)F | > 10 µM | 2.93 µM | 2.36 µM | 0.74 µM |  |  |  | 
7 | Fc1ccccc1-c1cccc(-c2csc(-c3ccccc3)n2)c1 | 1.59 µM | > 30 µM | 3.4 µM | > 30 µM |  |  |  | 
8 | CC(C)n1nc(-c2cccc(-c3ccccc3)c2)nc1-c1ccccc1 | > 10 µM | > 10 µM | > 30 µM | > 10 µM |  |  |  | 
9 | c1ccc(-c2cccc(-c3noc(-c4ccccc4)n3)c2)cc1 | 1.33 µM | > 10 µM | 0.79 µM | > 10 µM |  |  |  | 
10 | c1ccc(-c2cccc(-c3n[nH]c(-c4ccccc4)n3)c2)cc1 | > 10 µM | > 30 µM | > 30 µM | > 30 µM |  |  |  | 
11 | O/N=C\c1cc(-c2cccc(-c3csc(-c4ccccc4)n3)c2)ccc1F | > 30 µM | > 30 µM | > 10 µM | > 10 µM |  |  |  | 
12 | c1ccc(-c2cccc(-c3nc(-c4ccoc4)n(-c4ccccc4)n3)c2)cc1 | > 10 µM | > 10 µM | 3.78 µM | 2.63 µM |  |  |  | 
13 | Fc1ccc(-c2cccc(-c3csc(-c4ccc(C(F)(F)F)nc4)n3)c2)cc1 | 1.35 µM | 3.11 µM | 0.85 µM | 2.55 µM |  |  |  | 
14 | Fc1ccc(-c2cccc(-c3csc(-c4cc5ccccc5s4)n3)c2)cc1 | > 10 µM | > 10 µM | 1.92 µM | > 10 µM |  |  |  | 
15 | Fc1ccccc1-c1cccc(-c2nc(-c3ccccc3)n(-c3ccccc3)n2)c1 | > 10 µM | 4.45 µM | > 10 µM | 2.29 µM |  |  |  | 
16 | c1ccc(-c2cccc(-c3cc(-c4ccccc4)on3)c2)cc1 | > 10 µM | > 10 µM | > 30 µM | > 10 µM |  |  |  | 
17 | Fc1cccc(-n2nc(-c3cccc(-c4ccccc4)c3)nc2-c2ccccc2)c1 | 3.22 µM | > 10 µM | > 10 µM | 1.16 µM |  |  |  | 
18 | c1ccc(Cn2nc(-c3cccc(-c4ccccc4)c3)nc2-c2ccccc2)cc1 | > 10 µM | 3.9 µM | 2.71 µM | 1.4 µM |  |  |  | 
19 | Fc1ccc(-c2cccc(-c3csc(-c4ccccc4)n3)c2)cc1 | 0.33 µM | 1.21 µM | 0.48 µM | > 10 µM |  |  |  | 
20 | Fc1ccc(-c2cccc(-c3csc(-c4cc5ccccc5o4)n3)c2)cc1 | 2.57 µM | 3.32 µM | 1.93 µM | > 10 µM |  |  |  | 
21 | c1ccc(-c2cccc(-c3nc(-c4cccs4)n(-c4ccccc4)n3)c2)cc1 | > 10 µM | 4.29 µM | 3.67 µM | 1.68 µM |  |  |  | 
22 | Cc1nc(-c2cccc(-c3ccc(F)cc3)c2)cs1 | > 10 µM | > 10 µM | > 10 µM | > 10 µM |  |  |  | 
23 | Clc1cccc(-c2cccc(-c3csc(-c4ccccc4)n3)c2)c1 | > 10 µM | > 10 µM | > 10 µM | > 10 µM |  |  |  | 
24 | Fc1cccc(-c2cccc(-c3csc(-c4ccccc4)n3)c2)c1 | 0.64 µM | > 10 µM | 0.35 µM | > 30 µM |  |  |  | 
25 | Fc1cccc(-c2cccc(-c3nc(-c4ccccc4)n(-c4ccccc4)n3)c2)c1 | > 10 µM | 3.11 µM | > 10 µM | 1.51 µM |  |  |  | 
